Our source for the IC50 values is patent US20250101034A1, “COMPOSITIONS USEFUL FOR MODULATING SPLICING” (SKYHAWK THERAPEUTICS, INC., priority 2021, published 2025).

The test system of assay [1] is total ATXN3 protein. Nature of the assay: ATXN3 total protein assay (MSD, SK-N-MC cells). In kind it is cell-based, Human. As to conditions: 48 hours incubation, read-out: ATXN3 Potency - Protein IC50. In outline: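 SK-N-MC human neuroblastoma cells treated with compound (30 μM to 0.6 nM) for 48 h, then lysed with protease inhibitors. Total ATXN3 measured by MSD sandwich immunoassay (mouse capture, rabbit detection antibodies, anti-rabbit MSD-ST secondary), quantified against recombinant ATXN3 standards.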

Assay [2] concerns ATXN3 transcripts containing exon 4 (E4E5). Nature of the assay: ATXN3 quantitative splicing assay (qPCR, SK-N-MC cells). In kind it is cell-based. The conditions noted are these: Homo sapiens, 24 h treatment, qPCR E4E5 primers/probe, read-out: ATXN3 Potency - Splicing E4E5 IC50. The procedure, abridged:
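SK-N-MC cells treated 24 h with compound (30 μM to 0.6 nM, 0.3% DMSO) 24 h after plating; lysates reverse-transcribed and analysed by TaqMan qPCR. E4E5 primers/probe detect exon 4–containing transcripts; E8E9 measures total ATXN3, alongside exon 4–skipped transcript detection.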

As to `Cc1c(CC(N)CC2(F)CC2)sc2c(NCc3cccs3)cnnc12` (centres unmarked) [Compound 117, 6-[2-amino-3-(1-fluorocyclopropyl)propyl]-7-methyl-N-[(thiophen-2-yl)methyl]thieno[3,2-c]pyridazin-4-amine], the IC50 in assay [1] and in assay [2] was 5 to 10 µM throughout.
For `Cc1c(C(F)(F)[C@H](C)N)sc2c(NCc3cccs3)cnnc12` [Compound 125, 6-[(2S)-2-amino-1,1-difluoropropyl]-7-methyl-N-(thiophen-2-ylmethyl)thieno[3,2-c]pyridazin-4-amine], the IC50 in assay [1] and in assay [2] was 0.501 to 5 µM each time.
Regarding `Cc1c(C[C@@H](N)C[C@H]2CC2(F)F)sc2c(NCc3cccs3)cnnc12` [Compound 127, 6-[(2S)-2-amino-3-[(1S)-2,2-difluorocyclopropyl]propyl]-7-methyl-N-(thiophen-2-ylmethyl)thieno[3,2-c]pyridazin-4-amine], the IC50 in assay [1] and in assay [2] was 10 to 40 µM throughout.
For `Cc1c(C[C@@H](N)C[C@@H]2CC2(F)F)sc2c(NCc3cccs3)cnnc12` [Compound 128, 6-[(2S)-2-amino-3-[(1R)-2,2-difluorocyclopropyl]propyl]-7-methyl-N-(thiophen-2-ylmethyl)thieno[3,2-c]pyridazin-4-amine], the half-maximal inhibitory concentration (IC50) in assay [1] and in assay [2] was 10 to 40 µM each time.
Consider `Cc1c(C[C@H](N)C[C@H]2CC2(F)F)sc2c(NCc3cccs3)cnnc12` [Compound 129, 6-[(2R)-2-amino-3-[(1S)-2,2-difluorocyclopropyl]propyl]-7-methyl-N-(thiophen-2-ylmethyl)thieno[3,2-c]pyridazin-4-amine], for which the concentration for half-maximal inhibition (IC50) (usually the concentration that inhibits the measured activity by half) in assay [1] lay in the range of 0.501 to 5 µM; in assay [2] it was 5 to 10 µM.
For `Cc1c(C[C@H](N)C[C@@H]2CC2(F)F)sc2c(NCc3cccs3)cnnc12` [Compound 130, 6-[(2R)-2-amino-3-[(1R)-2,2-difluorocyclopropyl]propyl]-7-methyl-N-(thiophen-2-ylmethyl)thieno[3,2-c]pyridazin-4-amine] the same measures were 0.501 to 5 µM and 0.501 to 5 µM.
As for `Cc1c(C[C@@H](N)COC2CC2)sc2c(NCc3cccs3)cnnc12` [Compound 131, 6-[(2R)-2-amino-3-cyclopropoxypropyl]-7-methyl-N-[(thiophen-2-yl)methyl]thieno[3,2-c]pyridazin-4-amine], the IC50 lay in the range of 5 to 10 µM in assay [1] and 0.501 to 5 µM in assay [2].
With `Cc1c(C[C@@H](N)COC(F)(F)F)sc2c(NCc3cccs3)cnnc12` [Compound 132, 6-[(2R)-2-amino-3-(trifluoromethoxy)propyl]-7-methyl-N-[(thiophen-2-yl)methyl]thieno[3,2-c]pyridazin-4-amine], the IC50 in assay [1] and in assay [2] was 10 to 40 µM throughout.
Regarding `Cc1c(C[C@@H](N)COC(F)F)sc2c(NCc3cccs3)cnnc12` [Compound 133, 6-[(2R)-2-amino-3-(difluoromethoxy)propyl]-7-methyl-N-[(thiophen-2-y1)methyl]thieno[3,2-c]pyridazin-4-amine], the IC50 in assay [1] and in assay [2] was 0.501 to 5 µM each time.
For the compound `C[C@H](F)[C@H](N)Cc1sc2c(NCc3cccs3)cnnc2c1Br` [Compound 135, 6-[(2R,3S)-2-amino-3-fluorobutyl]-7-bromo-N-[(thiophen-2-yl)methyl]thieno[3,2-c]pyridazin-4-amine], the IC50 in assay [1] and in assay [2] was 0.101 to 0.5 µM in each case.
For `COC[C@H](N)Cc1sc2c(NCc3cccs3)cnnc2c1Br` [Compound 136, 6-[(2R)-2-amino-3-methoxypropyl]-7-bromo-N-[(thiophen-2-yl)methyl]thieno[3,2-c]pyridazin-4-amine], the IC50 in assay [1] and in assay [2] was 0.101 to 0.5 µM in each case.
As to `N[C@@H](COC1CC1)Cc1sc2c(NCc3cccs3)cnnc2c1Br` [Compound 137, 6-[(2R)-2-amino-3-cyclopropoxypropyl]-7-bromo-N-[(thiophen-2-yl)methyl]thieno[3,2-c]pyridazin-4-amine], the IC50 in assay [1] and in assay [2] was 0.501 to 5 µM throughout.
As to `Cc1c(C[C@@H](N)CCOC(F)F)sc2c(NCc3cccs3)cnnc12` [Compound 139, 6-[(2S)-2-amino-4-(difluoromethoxy)butyl]-7-methyl-N-(thiophen-2-ylmethyl)thieno[3,2-c]pyridazin-4-amine], the IC50 in assay [1] and in assay [2] was 0.501 to 5 µM in each case.
Take `C[C@H](N)C(F)(F)c1sc2c(NCc3cccs3)cnnc2c1Br` [Compound 140, 6-[(2S)-2-amino-1,1-difluoropropyl]-7-bromo-N-[(thiophen-2-yl)methyl]thieno[3,2-c]pyridazin-4-amine]: the IC50 in assay [1] and in assay [2] was 0.501 to 5 µM in each case.
Turning to `Cc1c(CC(N)CF)sc2c(NCc3cccs3)cnnc12` (centres unmarked) [Compound 141, 6-(2-amino-3-fluoropropyl)-7-methyl-N-[(thiophen-2-yl)methyl]thieno[3,2-c]pyridazin-4-amine], the IC50 in assay [1] and in assay [2] was 0.501 to 5 µM throughout.
Turning to `C#CC[C@H](N)Cc1sc2c(NCc3cccs3)cnnc2c1C` [Compound 142, 6-[(2S)-2-aminopent-4-yn-1-yl]-7-methyl-N-(thiophen-2-ylmethyl)thieno[3,2-c]pyridazin-4-amine], the IC50 in assay [1] and in assay [2] was 0.501 to 5 µM each time.
